The values that follow come from ChEMBL document CHEMBL1129235, “Discovery of the hemifumarate and (alpha-L-alanyloxy)methyl ether as prodrugs of an antirheumatic oxindole: prodrugs for the enolic OH group” (J Med Chem, 1996).

Values after ≈ are worked out from the molar mass of the structure shown. Bounds are passed on as bounds.

One data set is filed under the species Rattus norvegicus. As to the kind of experiment: Relative bioavailability of prodrugs in rat. The conditions noted are these: in vivo. Type of data set: ADME, organism-based.
A short description of data set [1]: (§1) Aqueous solubility. The format is physicochemical. Particulars: aqueous medium (not further specified); read-out: S.
Data set [2] is described as follows: Relative bioavailability of oxindole prodrugs in monkey. Particulars: simiiformes, in vivo. Type of data set: ADME, organism-based.
The nature of data set [3]: as §1. Type of data set: physicochemical. Particulars: aqueous medium (not further specified); read-out: S. This is another data set of the same source.
For a further data set, the species on record is Canis familiaris. In words: Relative bioavailability of oxindole prodrugs in dog. Type of data set: ADME, organism-based, Canis lupus familiaris. Particulars: in vivo.
Data set [4] can be described thus: as §1. The conditions noted are these: aqueous medium (not further specified); read-out: S. The format is physicochemical. This is another data set of the same source.
Data set [5] can be described thus: as §1. Type of data set: physicochemical. The conditions noted are these: aqueous medium (not further specified); read-out: S. The source holds these as a separate data set.
Data set [6] can be described thus: Ionization constant for the compound was evaluated. Type of data set: physicochemical.

As to `CC(C)OC(=O)O/C(=C1/C(=O)N(C(N)=O)c2cc(Cl)c(F)cc21)c1cccs1` (stereo in doubt; 32), in the data set filed under Rattus norvegicus, the “Relative F%” value is listed as 0.6.

Consider `NC(=O)N1C(=O)/C(=C(/OC(=O)/C=C/C(=O)O)c2cccs2)c2cc(F)c(Cl)cc21`, for which the results for the solubility in data set [1], in data set [3] and in data set [4] were 2.5 µg/mL (≈ 5.72 µM), 24 µg/mL (≈ 54.9 µM) and 0.08 µg/mL (≈ 0.183 µM), respectively. Besides, in the data set filed under Rattus norvegicus, the “Relative F%” value is reported as 95. Besides, the results for the Relative bioavailability (in data set [2]; in the data set filed under Canis familiaris) were 73 and 91, respectively. `CC(=O)OCC(=O)OCO/C(=C1/C(=O)N(C(N)=O)c2cc(Cl)c(F)cc21)c1cccs1`: the “Relative F%” value in the data set listed under Rattus norvegicus came to 17. In addition, in data set [4], the solubility was < 0.02 µg/mL. On the same counts, the results for `CCOC(=O)O/C(=C1\C(=O)N(C(N)=O)c2cc(Cl)c(F)cc21)c1cccs1` are 3.5 and 0.023 µg/mL (≈ 0.056 µM). Taken in the same sequence, the figures for `CCC(=O)O/C(=C1\C(=O)N(C(N)=O)c2cc(Cl)c(F)cc21)c1cccs1` were 6.6 and 0.003 µg/mL (≈ 0.0076 µM). Turning to `NC(=O)N1C(=O)/C(=C(\OC(=O)c2ccccn2)c2cccs2)c2cc(F)c(Cl)cc21`, the “Relative F%” value in the data set filed under Rattus norvegicus was 1.6. Also, the solubility in data set [5] and in data set [4] was < 0.06 µg/mL each time. For the compound `COC(C)C(=O)OCO/C(=C1/C(=O)N(C(N)=O)c2cc(Cl)c(F)cc21)c1cccs1` (stereo not drawn), the “Relative F%” value in the data set listed under Rattus norvegicus amounted to 45. On to `O=C(c1cccs1)c1c2cc(F)c(Cl)cc2n2c(=O)[nH]c(=O)oc12`, for which, in the data set filed under Rattus norvegicus, the “Relative F%” value came to 25. Also, the solubility in data set [4] is 17 µg/mL (≈ 46.6 µM). As to `CC(C)(C)C(=O)OCO/C(=C1/C(=O)N(C(N)=O)c2cc(Cl)c(F)cc21)c1cccs1`, the “Relative F%” value in the data set listed under Rattus norvegicus is 0. On the same count and under the same terms, with `CCN(CC)C(=O)COC(=O)CCC(=O)O/C(=C1/C(=O)N(C(N)=O)c2cc(Cl)c(F)cc21)c1cccs1` the figure was 16. Consider `CCCCC(=O)O/C(=C1\C(=O)N(C(N)=O)c2cc(Cl)c(F)cc21)c1cccs1`, for which the “Relative F%” value in the data set listed under Rattus norvegicus stood at 17. In addition, the solubility in data set [4] turned out to be 0.013 µg/mL (≈ 0.0307 µM). Regarding `CCCC(OCc1ccccc1)C(=O)OCO/C(=C1/C(=O)N(C(N)=O)c2cc(Cl)c(F)cc21)c1cccs1` (stereo not drawn), in the data set filed under Rattus norvegicus, the “Relative F%” value is reported as 58. The Relative bioavailability in the data set listed under Canis familiaris is 7.5.

`Cl.Cl.NCCCCC(N)C(=O)OCO/C(=C1/C(=O)N(C(N)=O)c2cc(Cl)c(F)cc21)c1cccs1` (stereo not drawn): the “Relative F%” value in the data set listed under Rattus norvegicus is 49. Still for that read-out and setting: then `CC(C)OC(=O)OC(C)O/C(=C1/C(=O)N(C(N)=O)c2cc(Cl)c(F)cc21)c1cccs1` (stereo not drawn), with 12. For `CCC(OCc1ccccc1)C(=O)OCO/C(=C1/C(=O)N(C(N)=O)c2cc(Cl)c(F)cc21)c1cccs1` (stereo not drawn), the “Relative F%” value in the data set filed under Rattus norvegicus was found to be 86. Also, the Relative bioavailability in the data set listed under Canis familiaris is listed as 12. Consider `CC(C)(C)C(=O)O/C(=C1\C(=O)N(C(N)=O)c2cc(Cl)c(F)cc21)c1cccs1`, for which, in the data set listed under Rattus norvegicus, the “Relative F%” value stood at 3.7.

For `CC(C)OC(=O)O/C(=C1/C(=O)N(C(N)=O)c2cc(Cl)c(F)cc21)c1cccs1` (stereo in doubt; 33), the “Relative F%” value in the data set filed under Rattus norvegicus is on record as 9.9.

Turning to `CC(=O)OC(C)O/C(=C1/C(=O)N(C(N)=O)c2cc(Cl)c(F)cc21)c1cccs1` (stereo not drawn), in the data set listed under Rattus norvegicus, the “Relative F%” value was 2.3. In addition, the solubility in data set [4] is 0.04 µg/mL (≈ 0.0942 µM). Taken in the same sequence, the figures for `NC(=O)N1C(=O)/C(=C(\OC(=O)c2cccc(C(=O)O)c2)c2cccs2)c2cc(F)c(Cl)cc21` were 4.2 and 0.58 µg/mL (≈ 1.19 µM). Taken in the same sequence, the figures for `CC(C)(C)OC(=O)NCC(=O)OCO/C(=C1/C(=O)N(C(N)=O)c2cc(Cl)c(F)cc21)c1cccs1` were 0 and 0.06 µg/mL (≈ 0.114 µM). Take `NC(=O)N1C(=O)/C(=C(\OC(=O)c2ccccc2)c2cccs2)c2cc(F)c(Cl)cc21`: the “Relative F%” value in the data set filed under Rattus norvegicus came to 0. In the case of `C[C@@H](N)C(=O)OCO/C(=C1/C(=O)N(C(N)=O)c2cc(Cl)c(F)cc21)c1cccs1.Cc1ccc(S(=O)(=O)O)cc1`, the solubility in data set [1] amounted to 150 µg/mL. Further, the “Relative F%” value in the data set listed under Rattus norvegicus is on record as 80. Also, the Relative bioavailability (in data set [2]; in the data set filed under Canis familiaris) was 78 each time. For the compound `NC(=O)N1C(=O)/C(=C(/OCOC(=O)COCc2ccccc2)c2cccs2)c2cc(F)c(Cl)cc21`, the “Relative F%” value in the data set listed under Rattus norvegicus was found to be 42. As to `CC(O)C(=O)OCO/C(=C1/C(=O)N(C(N)=O)c2cc(Cl)c(F)cc21)c1cccs1` (stereo not drawn), in data set [1], the solubility was determined as 0.38 µg/mL (≈ 0.862 µM). For the same compound, the “Relative F%” value in the data set filed under Rattus norvegicus was determined as 90. For the same compound, the Relative bioavailability in the data set filed under Canis familiaris was 22. In the case of `NC(=O)N1C(=O)/C(=C(/OCOC(=O)c2ccccc2)c2cccs2)c2cc(F)c(Cl)cc21`, in the data set listed under Rattus norvegicus, the “Relative F%” value is 0. Consider `CC(=O)O/C(=C1\C(=O)N(C(N)=O)c2cc(Cl)c(F)cc21)c1cccs1`, for which the “Relative F%” value in the data set listed under Rattus norvegicus is 14. In addition, in data set [4], the solubility stood at 0.011 µg/mL (≈ 0.0289 µM).

For the compound `COCC(=O)OCO/C(=C1/C(=O)N(C(N)=O)c2cc(Cl)c(F)cc21)c1cccs1`, the “Relative F%” value in the data set listed under Rattus norvegicus amounted to 62. In general, pKa refers to the negative logarithm of the acid dissociation constant. Regarding `NC(=O)N1C(=O)C(=C(O)c2cccs2)c2cc(F)c(Cl)cc21` [ILONIDAP], in the data set listed under Rattus norvegicus, the “Relative F%” value is given as 100. Moreover, the Relative bioavailability (in data set [2]; in the data set filed under Canis familiaris) was 100 throughout. Further, in data set [6], the pKa is 3.5. In addition, the solubility in data set [4] came out at 40 µg/mL (≈ 118 µM).

`Cc1ccc(S(=O)(=O)O)cc1.NCC(=O)OCO/C(=C1/C(=O)N(C(N)=O)c2cc(Cl)c(F)cc21)c1cccs1`: the “Relative F%” value in the data set listed under Rattus norvegicus worked out at 46. Moreover, in the data set listed under Canis familiaris, the Relative bioavailability is 78.

Take `CC(C)CC(N)C(=O)OCO/C(=C1/C(=O)N(C(N)=O)c2cc(Cl)c(F)cc21)c1cccs1.Cc1ccc(S(=O)(=O)O)cc1` (stereo not drawn): the “Relative F%” value in the data set filed under Rattus norvegicus is reported as 81. The same measure, in the same setting: with `CC(NC(=O)OC(C)(C)C)C(=O)OCO/C(=C1/C(=O)N(C(N)=O)c2cc(Cl)c(F)cc21)c1cccs1` (stereo not drawn) the figure was 20; with `CCCCCCCCOC(=O)O/C(=C1/C(=O)N(C(N)=O)c2cc(Cl)c(F)cc21)c1cccs1`, 5.7. With `CCOC(=O)CCC(=O)O/C(=C1\C(=O)N(C(N)=O)c2cc(Cl)c(F)cc21)c1cccs1`, the “Relative F%” value in the data set listed under Rattus norvegicus is given as 3.5. Take `NC(=O)N1C(=O)/C(=C(\OC(=O)c2ccncc2)c2cccs2)c2cc(F)c(Cl)cc21`: the “Relative F%” value in the data set filed under Rattus norvegicus is recorded as 2.2. Further, the solubility is < 0.07 µg/mL in data set [5] and 0.32 µg/mL (≈ 0.721 µM) in data set [4]. For the compound `COCC(=O)O/C(=C1\C(=O)N(C(N)=O)c2cc(Cl)c(F)cc21)c1cccs1`, the “Relative F%” value in the data set listed under Rattus norvegicus is on record as 8.9. On the same count and under the same terms, then `CC(=O)OCC(=O)O/C(=C1\C(=O)N(C(N)=O)c2cc(Cl)c(F)cc21)c1cccs1`, with 6.6.

Regarding `NC(=O)N1C(=O)/C(=C(\OC(=O)c2cccnc2)c2cccs2)c2cc(F)c(Cl)cc21`, the “Relative F%” value in the data set filed under Rattus norvegicus is on record as 0. Besides, the solubility in data set [5] and in data set [4] was < 0.06 µg/mL in each case. Turning to `NC(=O)N1C(=O)/C(=C(/OC(=O)/C=C/c2ccccc2)c2cccs2)c2cc(F)c(Cl)cc21`, the “Relative F%” value in the data set filed under Rattus norvegicus was 4. On the same count and under the same terms, then `CC(C)C(N)C(=O)OCO/C(=C1/C(=O)N(C(N)=O)c2cc(Cl)c(F)cc21)c1cccs1.Cc1ccc(S(=O)(=O)O)cc1` (stereo not drawn), with 27.

With `CCOC(=O)OC(C)O/C(=C1/C(=O)N(C(N)=O)c2cc(Cl)c(F)cc21)c1cccs1` (stereo not drawn), the “Relative F%” value in the data set filed under Rattus norvegicus was 26. Moreover, in the data set listed under Canis familiaris, the Relative bioavailability is on record as 1.4. Besides, in data set [4], the solubility is 0.009 µg/mL (≈ 0.0198 µM). Consider `COC(=O)O/C(=C1\C(=O)N(C(N)=O)c2cc(Cl)c(F)cc21)c1cccs1`, for which, in the data set listed under Rattus norvegicus, the “Relative F%” value turned out to be 13. The same measure, in the same setting: then `CCC(OC)C(=O)OCO/C(=C1/C(=O)N(C(N)=O)c2cc(Cl)c(F)cc21)c1cccs1` (stereo not drawn), with 93. For the compound `CCOC(=O)/C=C/C(=O)O/C(=C1/C(=O)N(C(N)=O)c2cc(Cl)c(F)cc21)c1cccs1`, in the data set filed under Rattus norvegicus, the “Relative F%” value is 21. Further, the Relative bioavailability in the data set listed under Canis familiaris came out at 6.4. In addition, the solubility in data set [4] was < 0.02 µg/mL.

Regarding `CCN(CC)C(=O)OCC(=O)OCO/C(=C1/C(=O)N(C(N)=O)c2cc(Cl)c(F)cc21)c1cccs1`, the “Relative F%” value in the data set listed under Rattus norvegicus worked out at 36.

For the compound `COCC(=O)OC(C)O/C(=C1/C(=O)N(C(N)=O)c2cc(Cl)c(F)cc21)c1cccs1` (stereo not drawn), the “Relative F%” value in the data set listed under Rattus norvegicus is recorded as 47. Moreover, the Relative bioavailability in the data set listed under Canis familiaris amounted to 5.2. The solubility in data set [4] was found to be 0.34 µg/mL (≈ 0.747 µM).
